Measurements from US20230264191A1, “SYSTEMS AND METHODS FOR FABRICATING PHYSIOLOGICALLY RELEVANT IN VITRO VESSELS” (The Texas A&M University System, priority 2022, published 2023).

Tested on: lymphatic endothelial cells (LEC monoculture / LEC-LMC coculture in lymphangion-chip)
Assay: Lymphatic endothelial barrier function (permeability) of the lymphangion-chip after exposure to TNF-α
Assay type: cell-based
Conditions: LMCs cocultured with LECs (graph 400, FIG. 22)

Tumor Necrosis Factor Alpha (TNF-α)
lymphatic endothelial barrier function: relatively conserved
